Source: patent publication US9557338B2 (SIGNAL PHARMACEUTICALS, LLC, priority 2012, dated 2017)
Where two headings read alike, the source gives them in different places.

Legend:
Type in all cases: cell-based
Phospho-PRAS40(T246) = test: Luminex multiplex assay, Phospho-PRAS40(T246)
Source text: (§1) Determination of Phospho-GSK3β(S9), Phospho-PRAS40(T246) and Phospho-4E-BP1(T46) and the Effect of Compound 1 or Rapamycin.
(§2) The multiplex Luminex assay format differs from conventional enzyme-linked immunosorbent assay (ELISA) in that the multiplex capture antibody is attached to a polystyrene bead whereas the ELISA capture antibody is attached to the microplate well. The use of the suspension bead-based technology enables the multiplexing capabilities of the Luminex assays. The xMAP® technology uses 5.6 micron polystyrene microspheres, which are internally dyed with red and infrared fluorophores of differing intensities. Each bead is given a unique number, or bead region, allowing differentiation of one bead from another. Beads covalently bound to different specific antibodies can be mixed in the same assay, utilizing a 96-well microplate format. At the completion of the sandwich immunoassay, beads can be read, using the Luminex 100™ or Luminex 200 detection system, in single-file by dual lasers for classification and quantification of each analyte. The Akt-Pathway Phospho 5-plex kit used was custom made and includes the ability to simultaneously measure p-GSK3β (S9), p-PRAS40(T246), and p-4E-BP1(T46).
(§3) Cells were plated at the required density. The cells were treated with either Compound 1 or rapamycin over a range of concentrations for 1 hour in 5% CO2 at 37° C. Compound 1 and rapamycin were used at the same concentrations as for the proliferation assay. As for the cell proliferation assay, a reference standard was included in the assay for PC3 cells and the coefficient of variation for assay of p-GSK3β(S9) was 37.8% (n=30), p-PRAS40(T246) was 27.8% (n=30) and for p4E-BP1(T46) was 13.5% (n=4). For three cell lines (HCT-116, MDA-MB-231 and HT29) in the assay for phosphorylation of GSK3β, PRAS40 and 4E-BP1, IGF-I stimulation (500 ng/mL, recombinant human IGF-I) for the last 10 min of incubation was used. The media was aspirated from the wells and the plate was placed on ice. Then 35 μL of Lysis Buffer was added to each well and incubated on ice for at least 30 minutes. During the incubation, the standard curve for each phosphoprotein was prepared. The standards provided were reconstituted and serial dilutions were prepared according to the manufacturer's instructions. At the end of the cell lysis step, […] of the lysate was transferred to a V-bottom plate and spun at 4° C. at 2000 rpm for 5 minutes. Both the 1× Luminex bead and 1× detector antibody solutions were prepared during this time. The 1× bead solution was vortexed and 25 μL was added into each well of a black round bottom plate. Then 50 μL of the 1× detector antibody was added to each well. Fifty microliters (50 μL) of the prepared standards were added to the designated wells. Then 25 μL of the assay diluent was added to each well designated for the compound-treated cell lysates. At the end of the spin, 25 μL of cell lysate was added to the corresponding wells of the black assay plate. The assay plate was covered with the white plate lid and incubated for 3 hours at room temperature on an orbital shaker.
(§4) Approximately 10-15 minutes prior to the end of the first incubation, the secondary antibody solution was prepared according to the vendor's protocol. Goat anti-rabbit R-phycoerythrin red fluorescent protein (RPE) supplied as a 10× concentrate was diluted to generate a 1× goat anti-rabbit RPE stock. The 96-well filter plate was pre-wet with 200 μL of 1× Working wash solution. At the end of the 3 hour incubation, a multichannel pipette was used to transfer the entire contents from each assay well into the wells of the filter plate. The liquid from the wells was removed by aspiration with the vacuum manifold. Then 200 μL of 1× Working wash solution was added into each well. The wash solution was aspirated using the vacuum manifold after 15-30 seconds. This wash step was repeated one time. The bottom of the plate was blotted on clean paper towels to remove residual liquid. […]

Phospho-GSK3β(S9) = test: Luminex multiplex assay, Phospho-GSK3β(S9)
Source text: as §1, §2, §3, §4

p70S6K = test: Luminex multiplex assay, p70S6K phosphorylation in cell lysates
Source text: as §2, §3, §4

[1] = Homo sapiens, HCT-116, HCT116 cell line, IGF, read-out: Luminex PRAS40 (IGF)
[2] = Homo sapiens, U-87 MG, U87MG cell line, read-out: Luminex PRAS40
[3] = Homo sapiens, HCT-116, HCT116 cell line, IGF, read-out: Luminex GSK-3β (IGF)
[4] = Homo sapiens, U-87 MG, U87MG cell line, read-out: Luminex GSK-3β
[5] = Homo sapiens, HCT-116, HCT116 cell line, IGF, read-out: Luminex p70S6K (IGF)
[6] = Homo sapiens, U-87 MG, U87MG cell line, read-out: Luminex p70S6K
[7] = PC3 cell line, read-out: Luminex PRAS40
[8] = PC3 cell line, read-out: Luminex GSK-3β
[9] = PC3 cell line, read-out: Luminex p70S6K

Structure (SMILES) | IC50 (Phospho-PRAS40(T246); [7]) | IC50 (Phospho-GSK3β(S9); [8]) | IC50 (p70S6K; [9]) | also measured
CC(C)(O)c1ccc(-c2cnc3c(n2)N(CC2CCOCC2)CC(=O)N3)cn1 [A-1, 6-(6-(2-hydroxypropan-2-yl)pyridin-3-yl)-4-((tetrahydro-2H-pyran-4-yl)methyl)-3,4-dihydropyrazino[2,3-b]pyrazin-2(1H)-one] |  |  |  | IC50 (Phospho-PRAS40(T246); [1]): 2610 nM; IC50 (Phospho-PRAS40(T246); [2]): 1660 nM; IC50 (Phospho-GSK3β(S9); [3]): 1740 nM; IC50 (Phospho-GSK3β(S9); [4]): 1220 nM; IC50 (p70S6K; [5]): 2120 nM; IC50 (p70S6K; [6]): 526 nM
CCn1c(=O)[nH]c2ncc(-c3ccc(-c4nnc[nH]4)nc3C)nc21 [A-2, 1-ethyl-6-(2-methyl-6-(4H-1,2,4-triazol-3-yl)pyridin-3-yl)-1H-imidazo[4,5-b]pyrazin-2(3H)-one] |  |  |  | IC50 (p70S6K; [5]): 1240 nM; IC50 (p70S6K; [6]): 433 nM
CO[C@H]1CC[C@H](N2CC(=O)Nc3ncc(-c4ccc(C(C)(C)O)nc4)nc32)CC1 [A-3, 6-(6-(2-hydroxypropan-2-yl)pyridin-3-yl)-4-((1r,4r)-4-methoxycyclohexyl)-3,4-dihydropyrazino[2,3-b]pyrazin-2(1H)-one] |  |  |  | IC50 (Phospho-PRAS40(T246); HCT116 cell line, IGF, read-out: Luminex PRAS40 (IGF)): 1370 nM; IC50 (Phospho-PRAS40(T246); U87MG cell line, read-out: Luminex PRAS40): 1160 nM; IC50 (Phospho-GSK3β(S9); HCT116 cell line, IGF, read-out: Luminex GSK-3β (IGF)): 1290 nM; IC50 (Phospho-GSK3β(S9); U87MG cell line, read-out: Luminex GSK-3β): 1470 nM; IC50 (p70S6K; HCT116 cell line, IGF, read-out: Luminex p70S6K (IGF)): 1820 nM; IC50 (p70S6K; U87MG cell line, read-out: Luminex p70S6K): 435 nM
Cc1nc(-c2nnc[nH]2)ccc1-c1cnc2c(n1)N(CCC1CCOCC1)C(=O)CN2 [A-4, 7-(2-methyl-6-(4H-1,2,4-triazol-3-yl)pyridin-3-yl)-1-(2-(tetrahydro-2H-pyran-4-yl)ethyl)-3,4-dihydropyrazino[2,3-b]pyrazin-2(1H)-one] |  |  |  | IC50 (Phospho-PRAS40(T246); [1]): 120 nM; IC50 (Phospho-PRAS40(T246); [2]): 98 nM; IC50 (Phospho-GSK3β(S9); [3]): 96.2 nM; IC50 (Phospho-GSK3β(S9); [4]): 71 nM; IC50 (p70S6K; [5]): 96.6 nM; IC50 (p70S6K; [6]): 27.8 nM
COCCN1CC(=O)Nc2ncc(-c3ccc(-c4nnc[nH]4)nc3C)nc21 [A-5, 4-(2-methoxyethyl)-6-(2-methyl-6-(4H-1,2,4-triazol-3-yl)pyridin-3-yl)-3,4-dihydropyrazino[2,3-b]pyrazin-2(1H)-one] |  |  |  | IC50 (Phospho-PRAS40(T246); [1]): 762 nM; IC50 (Phospho-PRAS40(T246); [2]): 1090 nM; IC50 (Phospho-GSK3β(S9); [4]): 2160 nM; IC50 (p70S6K; [5]): 514 nM; IC50 (p70S6K; [6]): 104 nM
CC(C)(O)c1ccc(-c2cnc3c(n2)N(CC2CCOCC2)CC(=O)N3)cc1 [A-6, 6-(4-(2-hydroxypropan-2-yl)phenyl)-4-((tetrahydro-2H-pyran-4-yl)methyl)-3,4-dihydropyrazino[2,3-b]pyrazin-2(1H)-one] |  |  |  | IC50 (Phospho-PRAS40(T246); [1]): 492 nM; IC50 (Phospho-PRAS40(T246); [2]): 3240 nM; IC50 (Phospho-GSK3β(S9); [4]): 2470 nM; IC50 (p70S6K; [5]): 654 nM; IC50 (p70S6K; [6]): 162 nM
CCn1c(=O)[nH]c2ncc(-c3ccc(-c4nc[nH]n4)c(F)c3C)nc21 [A-7, 1-ethyl-6-(3-fluoro-2-methyl-4-(1H-1,2,4-triazol-3-yl)phenyl)-1H-imidazo[4,5-b]pyrazin-2(3H)-one] |  |  |  | IC50 (Phospho-PRAS40(T246); [1]): 1020 nM; IC50 (Phospho-PRAS40(T246); [2]): 2850 nM; IC50 (Phospho-GSK3β(S9); [4]): > 5000 nM; IC50 (p70S6K; [5]): 470 nM; IC50 (p70S6K; [6]): 145 nM
C[C@@H](O)c1ccc(-c2cnc3c(n2)N(CCC2CCOCC2)C(=O)CN3)cn1 [A-8, (R)-7-(6-(1-hydroxyethyl)pyridin-3-yl)-1-(2-(tetrahydro-2H-pyran-4-yl)ethyl)-3,4-dihydropyrazino[2,3-b]pyrazin-2(1H)-one] |  |  |  | IC50 (Phospho-PRAS40(T246); [1]): 160 nM; IC50 (Phospho-PRAS40(T246); [2]): 255 nM; IC50 (Phospho-GSK3β(S9); [4]): 402 nM; IC50 (p70S6K; [5]): 91 nM; IC50 (p70S6K; [6]): 35.5 nM
CC(C)(O)c1ccc(-c2cnc3c(n2)N(CCC2CCOCC2)CC(=O)N3)cn1 [C-4] | 678 nM | 1110 nM | 134 nM | 
CC(C)(O)c1ccc(-c2cnc3c(n2)N(CC2CCOCC2)CC(=O)N3)cn1 [C-5] | 1750 nM | 964 nM | 156 nM | 
CC(C)(O)c1ccc(-c2cnc3c(n2)N(CCC2CCOCC2)C(=O)CN3)cn1 [C-7] | 140 nM | 179 nM | 34 nM | 
CO[C@H]1CC[C@H](N2CC(=O)Nc3ncc(-c4ccc(C(C)(C)O)nc4)nc32)CC1 [C-8] | 688 nM | 627 nM | 116 nM | 
COCCN1CC(=O)Nc2ncc(-c3ccc(-c4nnc[nH]4)nc3C)nc21 [C-10] | 624 nM | 1430 nM |  | 
O=C1CN(CCC2CCOCC2)c2nc(-c3ccc(-c4nnc[nH]4)c(F)c3)cnc2N1 [C-18] | 27 nM | 37 nM | 4 nM | 
O=C1CNc2ncc(-c3ccc(-c4nnc[nH]4)c(F)c3)nc2N1CCC1CCOCC1 [C-20] | > 50 nM | > 50 nM | 6 nM | 
COC1CCC(CN2CC(=O)Nc3ncc(-c4ccc(C(C)(C)O)nc4)nc32)C1 (stereo not shown) [C-21] | 795 nM | 1680 nM | 105 nM | 
COC1CCC(CN2CC(=O)Nc3ncc(-c4ccc(C(C)(C)O)nc4)nc32)C1 (stereo not shown) [C-22] | 1140 nM | 2980 nM | 86 nM | 
CO[C@@H]1CC[C@H](CN2CC(=O)Nc3ncc(-c4ccc(-c5nnc[nH]5)nc4C)nc32)C1 [C-36] |  |  | 16 nM | 
CO[C@H]1CC[C@@H](CN2CC(=O)Nc3ncc(-c4ccc(-c5nnc[nH]5)nc4C)nc32)C1 [C-37] |  |  | 24 nM | 
CCN1CC(=O)Nc2ncc(-c3ccc(-c4nnc[nH]4)nc3C)nc21 [C-45] | 1090 nM | 738 nM |  | 
COC1CCC(CN2C(=O)CNc3ncc(-c4ccc(-c5nc[nH]n5)nc4C)nc32)CC1 (stereo not shown) [C-46] | 144 nM | 218 nM |  | 
Cc1nc(-c2nnc[nH]2)ccc1-c1cnc2c(n1)N(C1CCOCC1)C(=O)CN2 [C-60] | 55 nM | 58 nM |  | 
CO[C@H]1CC[C@@H](CN2C(=O)CNc3ncc(-c4ccc(-c5nc[nH]n5)nc4C)nc32)CC1 [C-66] | 12 nM | 15 nM |  | 
Cc1nc(-c2nnc[nH]2)ccc1-c1cnc2c(n1)N(C1CCC(O)CC1)C(=O)CN2 (stereo not shown) [C-72] | 105 nM | 310 nM |  | 
Cc1nc(-c2nnc[nH]2)ccc1-c1cnc2c(n1)N(CCN1CCOCC1)C(=O)CN2 [C-73] | 261 nM | 671 nM |  | 

Second part, led by results:

IC50 (Phospho-PRAS40(T246); [7]) | IC50 (Phospho-GSK3β(S9); [8]) | IC50 (p70S6K; [9]) | Structure (SMILES) | also measured
> 1500 nM | > 1500 nM | 557 nM | CC(C)(O)c1ccc(-c2cnc3[nH]c(=O)n(CC4CCCCC4)c3n2)cc1 [C-1] | 
1300 nM | 2590 nM | 247 nM | CC(C)(O)c1ccc(-c2cnc3[nH]c(=O)n(CCC4CCOCC4)c3n2)cn1 [C-3] | 
754 nM | 1170 nM | 201 nM | CC(C)(O)c1ccc(-c2cnc3c(n2)N(CC2CCOCC2)CC(=O)N3)cc1 [C-11] | 
2900 nM | > 5000 nM | 549 nM | CC(C)(O)c1ccc(-c2cnc3c(n2)N(CC2CC2)CC(=O)N3)cn1 [C-17] | 
53 nM | 156 nM | 6 nM | COCCN1C(=O)CNc2ncc(-c3ccc(-c4nc[nH]n4)c(F)c3C)nc21 [C-19] | 
1440 nM | 1770 nM | 207 nM | COC1CCC(N2CC(=O)Nc3ncc(-c4ccc(C(C)(C)O)nc4)nc32)C1 (stereo not shown) [C-23] | 
 | 81 nM | 1 nM | COCCN1C(=O)CNc2ncc(-c3cnc(-c4nc[nH]n4)cc3C)nc21 [C-33] | 
 |  | 815 nM | Cc1cc(-c2nnc[nH]2)ccc1-c1cnc2c(n1)NC(=O)CN2 [C-35] | 
37 nM | 40 nM |  | Cc1nc(-c2nnc[nH]2)ccc1-c1cnc2c(n1)N(C1CCC(O)CC1)C(=O)CN2 (stereo not shown) [C-71] | 
